The values that follow come from patent publication US20260176319A1, “PEPTIDE ANALOGS AND METHODS OF USING THE SAME” (Kallyope, Inc., priority 2024, published 2026).

Starred links: 1 amine or outer side, 2 acyl side, 3 side chain; linkers in the order of their positions; H or OH if unused. Non-standard residues stand in square brackets, D forms with d. Residues, ends and D or L forms follow the SMILES beside them. *: point of attachment. d(γGlu) = O=C(O)[C@@H](CCC(=O)[*:2])N[*:1]; C18 diacid = O=C(O)CCCCCCCCCCCCCCCCC(=O)*; γGlu = O=C(O)[C@H](CCC(=O)[*:2])N[*:1]; 2Nal = N[C@@H](Cc1ccc2ccccc2c1)C(=O)O; 3Pal = N[C@@H](Cc1cccnc1)C(=O)O; Nle = CCCC[C@H](N)C(=O)O; AEEA = NCCOCCOCC(=O)O; Sar = CNCC(=O)O

The term EC50 denotes the concentration needed to bring the measured effect to its halfway point.

This test deals with T1, human GRP receptors (Homo sapiens, UniProt P30550).
T1 construct: host or cells: U2OS
T1 sequence (P30550 whole entry): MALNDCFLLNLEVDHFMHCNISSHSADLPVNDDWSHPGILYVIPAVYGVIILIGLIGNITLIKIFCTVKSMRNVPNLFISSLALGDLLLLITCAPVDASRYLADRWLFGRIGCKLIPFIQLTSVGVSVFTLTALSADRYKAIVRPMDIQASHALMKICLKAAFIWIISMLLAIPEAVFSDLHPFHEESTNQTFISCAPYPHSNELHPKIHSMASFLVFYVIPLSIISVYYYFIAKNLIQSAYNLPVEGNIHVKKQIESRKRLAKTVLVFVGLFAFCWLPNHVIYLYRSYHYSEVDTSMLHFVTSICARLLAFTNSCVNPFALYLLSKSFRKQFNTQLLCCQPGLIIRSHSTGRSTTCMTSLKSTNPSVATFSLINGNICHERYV
The test can be described thus: IP1 GRPR activity: HTRF IP1-Gq assay in U2OS cells stably expressing human GRP receptors. The settings on record: 90 minutes incubation, read-out: hIP1 GRPR EC50. The class given is cell-based. As for the experimental part: U2OS cells stably expressing human GRP receptors (DiscoverX, #93-0229C3) were cultured according to manufacturer's instructions. Cells were cultured to […], then collected using AccuTase (Innovative Cell Technologies, #AT104). Cells were washed and plated on a poly-D-lysine-coated 384-well plate (ThermoFisher, #A3890401) at a density of 2,500 cells/well in […] assay buffer (AssayComplete Cell Plating 5 Reagent, DiscoverX #93-0563R5), then incubated overnight at 37° C. and 5% C02. The following morning, a homogenous time-resolved fluorescence (HTRF) assay was performed in a 384-well plate format using the IP1-Gq assay kit (Cisbio, 62IPAPEB). Test compounds were made as a stock in DMSO, then serially diluted to generate 10-point dose response curves in IP1 stimulation buffer. Five microliters of the prepared compounds were then added to the plate containing cells and assay buffer in duplicate, and the cells were incubated at 37° C. and 5% CO2 for 90 minutes. Following compound incubation, […] of IP1 lysis/detection buffer (prepared according to manufacturer's instructions) was added to each well, and the plates were incubated at room temperature for 1 hour. HTRF signals were measured using a plate reader (ClarioSTAR), calculating the ratio between emissions at 665 nm and 620 nm (HTRF ratio). HTRF ratio for positive (Max, […]; SEQ ID NO. 45) and negative (Min, DMSO) controls were used to normalize HTRF data and generate values for % activity. EC50 and Max activity values were determined using a standard 4-parameter fit using GraphPad Prism.
(In general: In TR-FRET formats the signal depends on donor and acceptor labels being close together.)
Consider `CCCC[C@H](NC(=O)[C@H](CC(C)C)NC(=O)[C@H](Cc1c[nH]cn1)NC(=O)[C@@H](C)NC(=O)[C@@H](NC(=O)[C@H](C)NC(=O)[C@H](Cc1c[nH]cn1)NC(=O)[C@H](Cc1c[nH]cn1)NC(=O)[C@H](CC(N)=O)NC(=O)CNC(=O)COCCOCCNC(=O)COCCOCCNC(=O)CC[C@@H](NC(=O)CCCCCCCCCCCCCCCCC(=O)O)C(=O)O)C(C)C)C(N)=O` [Peptide 68, Octadecanedioyl-D-γGlu-OEG-OEG-Gly-Asn-His-His-Ala-Val-D-Ala-His-Leu-Nle-NH2] ({C18 diacid-d(γGlu)-AEEA-AEEA}-GNHHAV[dA]HL[Nle]-NH2), for which the EC50 is above 10 µM.
As to `CC(C)C[C@H](NC(=O)[C@H](Cc1c[nH]cn1)NC(=O)[C@@H](C)NC(=O)[C@@H](NC(=O)[C@H](C)NC(=O)[C@H](Cc1c[nH]c2ccccc12)NC(=O)[C@H](Cc1c[nH]cn1)NC(=O)[C@H](CC(N)=O)NC(=O)CNC(=O)COCCOCCNC(=O)COCCOCCNC(=O)CC[C@@H](NC(=O)CCCCCCCCCCCCCCCCC(=O)O)C(=O)O)C(C)C)C(=O)N[C@@H](CCCNC(=N)N)C(N)=O` [Peptide 69, Octadecanedioyl-D-γGlu-OEG-OEG-Gly-Asn-His-Trp-Ala-Val-D-Ala-His-Leu-Arg-NH2] ({C18 diacid-d(γGlu)-AEEA-AEEA}-GNHWAV[dA]HLR-NH2), the EC50 was above 10 µM.
To `CCCC[C@H](NC(=O)[C@H](CC(C)C)NC(=O)[C@H](Cc1c[nH]cn1)NC(=O)[C@@H](C)NC(=O)[C@@H](NC(=O)[C@H](C)NC(=O)[C@H](Cc1c[nH]c2ccccc12)NC(=O)[C@H](Cc1cccnc1)NC(=O)[C@H](CC(N)=O)NC(=O)CNC(=O)COCCOCCNC(=O)COCCOCCNC(=O)CC[C@@H](NC(=O)CCCCCCCCCCCCCCCCC(=O)O)C(=O)O)C(C)C)C(=O)N(C)CC(N)=O` [Peptide 72, Octadecanedioyl-D-γGlu-OEG-OEG-Gly-Asn-3Pal-Trp-Ala-Val-D-Ala-His-Leu-Nle-Sar-NH2] ({C18 diacid-d(γGlu)-AEEA-AEEA}-GN[3Pal]WAV[dA]HL[Nle][Sar]-NH2) belongs 1.05 µM.
To `CCCC[C@H](NC(=O)[C@H](CC(C)C)NC(=O)[C@H](Cc1c[nH]cn1)NC(=O)[C@@H](C)NC(=O)[C@@H](NC(=O)[C@H](C)NC(=O)[C@H](Cc1ccc2ccccc2c1)NC(=O)[C@H](Cc1c[nH]cn1)NC(=O)[C@H](CC(N)=O)NC(=O)CNC(=O)COCCOCCNC(=O)COCCOCCNC(=O)CC[C@H](NC(=O)CCCCCCCCCCCCCCCCC(=O)O)C(=O)O)C(C)C)C(=O)N(C)CC(N)=O` [Peptide 99, Octadecanedioyl-γGlu-OEG-OEG-Gly-Asn-His-2Nal-Ala-Val-D-Ala-His-Leu-Nle-Sar-NH2] ({C18 diacid-γGlu-AEEA-AEEA}-GNH[2Nal]AV[dA]HL[Nle][Sar]-NH2) belongs above 10 µM; to `CCCC[C@H](NC(=O)[C@H](CC(C)C)NC(=O)[C@H](Cc1c[nH]cn1)NC(=O)[C@@H](C)NC(=O)[C@@H](NC(=O)[C@H](C)NC(=O)[C@H](Cc1c[nH]cn1)NC(=O)[C@H](Cc1c[nH]cn1)NC(=O)[C@H](CC(N)=O)NC(=O)CNC(=O)COCCOCCNC(=O)COCCOCCNC(=O)CC[C@H](NC(=O)CCCCCCCCCCCCCCCCC(=O)O)C(=O)O)C(C)C)C(N)=O` [Peptide 107, Octadecanedioyl-γGlu-OEG-OEG-Gly-Asn-His-His-Ala-Val-D-Ala-His-Leu-Nle-NH2] ({C18 diacid-γGlu-AEEA-AEEA}-GNHHAV[dA]HL[Nle]-NH2), above 10 µM.
For `CCCC[C@H](NC(=O)[C@H](CC(C)C)NC(=O)[C@H](Cc1c[nH]cn1)NC(=O)[C@@H](C)NC(=O)[C@@H](NC(=O)[C@H](C)NC(=O)[C@H](CCCNC(=N)N)NC(=O)[C@H](Cc1c[nH]cn1)NC(=O)[C@H](CC(N)=O)NC(=O)CNC(=O)COCCOCCNC(=O)COCCOCCNC(=O)CC[C@H](NC(=O)CCCCCCCCCCCCCCCCC(=O)O)C(=O)O)C(C)C)C(N)=O` [Peptide 108, Octadecanedioyl-γGlu-OEG-OEG-Gly-Asn-His-Arg-Ala-Val-D-Ala-His-Leu-Nle-NH2] ({C18 diacid-γGlu-AEEA-AEEA}-GNHRAV[dA]HL[Nle]-NH2), the EC50 was above 10 µM.
The same measure for `CCCC[C@H](NC(=O)[C@H](CC(C)C)NC(=O)[C@H](Cc1c[nH]cn1)NC(=O)[C@@H](C)NC(=O)[C@@H](NC(=O)[C@H](C)NC(=O)[C@H](Cc1c[nH]c2ccccc12)NC(=O)[C@H](Cc1c[nH]cn1)NC(=O)[C@H](CC(N)=O)NC(=O)CNC(=O)COCCOCCNC(=O)COCCOCCNC(=O)CC[C@H](NC(=O)CCCCCCCCCCCCCCCCC(=O)O)C(=O)O)C(C)C)C(=O)N[C@@H](CCCNC(=N)N)C(N)=O` [Peptide 114, Octadecanedioyl-γGlu-OEG-OEG-Gly-Asn-His-Trp-Ala-Val-D-Ala-His-Leu-Nle-Arg-NH2] ({C18 diacid-γGlu-AEEA-AEEA}-GNHWAV[dA]HL[Nle]R-NH2): above 10 µM.
`CCCC[C@H](NC(=O)[C@H](CC(C)C)NC(=O)[C@H](Cc1c[nH]cn1)NC(=O)[C@@H](C)NC(=O)[C@@H](NC(=O)[C@@H](C)NC(=O)[C@H](Cc1c[nH]c2ccccc12)NC(=O)[C@H](Cc1c[nH]cn1)NC(=O)[C@H](CC(N)=O)NC(=O)CNC(=O)COCCOCCNC(=O)COCCOCCNC(=O)CC[C@H](NC(=O)CCCCCCCCCCCCCCCCC(=O)O)C(=O)O)C(C)C)C(=O)N(C)CC(N)=O` [Peptide 115, Octadecanedioyl-γGlu-OEG-OEG-Gly-Asn-His-Trp-D-Ala-Val-D-Ala-His-Leu-Nle-Sar-NH2] ({C18 diacid-γGlu-AEEA-AEEA}-GNHW[dA]V[dA]HL[Nle][Sar]-NH2): the EC50 was above 10 µM.
The same measure for `CCCC[C@H](NC(=O)[C@H](CC(C)C)NC(=O)[C@H](Cc1c[nH]cn1)NC(=O)[C@@H](C)NC(=O)[C@@H](NC(=O)[C@H](C)NC(=O)[C@H](Cc1c[nH]cn1)NC(=O)[C@H](Cc1c[nH]cn1)NC(=O)[C@H](CCCNC(=N)N)NC(=O)CNC(=O)COCCOCCNC(=O)COCCOCCNC(=O)CC[C@H](NC(=O)CCCCCCCCCCCCCCCCC(=O)O)C(=O)O)C(C)C)C(N)=O` [Peptide 116, Octadecanedioyl-γGlu-OEG-OEG-Gly-Arg-His-His-Ala-Val-D-Ala-His-Leu-Nle-NH2] ({C18 diacid-γGlu-AEEA-AEEA}-GRHHAV[dA]HL[Nle]-NH2): above 10 µM; for `CCCC[C@H](NC(=O)[C@H](CC(C)C)NC(=O)[C@H](Cc1c[nH]cn1)NC(=O)[C@@H](C)NC(=O)[C@@H](NC(=O)[C@H](C)NC(=O)[C@H](CCCNC(=N)N)NC(=O)[C@H](Cc1c[nH]cn1)NC(=O)[C@H](CC(N)=O)NC(=O)CNC(=O)COCCOCCNC(=O)COCCOCCNC(=O)CC[C@H](NC(=O)CCCCCCCCCCCCCCCCC(=O)O)C(=O)O)C(C)C)C(=O)N(C)CC(N)=O` [Peptide 130, Octadecanedioyl-γGlu-OEG-OEG-Gly-Asn-His-Arg-Ala-Val-D-Ala-His-Leu-Nle-Sar-NH2] ({C18 diacid-γGlu-AEEA-AEEA}-GNHRAV[dA]HL[Nle][Sar]-NH2): above 10 µM.
The same measure for `CCCC[C@H](NC(=O)[C@H](CC(C)C)NC(=O)[C@H](Cc1c[nH]cn1)NC(=O)[C@@H](C)NC(=O)[C@@H](NC(=O)[C@@H](C)NC(=O)[C@H](Cc1c[nH]c2ccccc12)NC(=O)[C@H](Cc1c[nH]cn1)NC(=O)[C@H](CC(=O)O)NC(=O)CNC(=O)COCCOCCNC(=O)COCCOCCNC(=O)CC[C@H](NC(=O)CCCCCCCCCCCCCCCCC(=O)O)C(=O)O)C(C)C)C(N)=O` [Peptide 139, Octadecanedioyl-γGlu-OEG-OEG-Gly-Asp-His-Trp-D-Ala-Val-D-Ala-His-Leu-Nle-NH2] ({C18 diacid-γGlu-AEEA-AEEA}-GDHW[dA]V[dA]HL[Nle]-NH2): above 10 µM.
